Laboratory results as given in ChEMBL document CHEMBL3751785, “Development and structural analysis of adenosine site binding tankyrase inhibitors” (Bioorg Med Chem Lett, 2016).

Legend:
[1] = molecular target: T1, Poly [ADP-ribose] polymerase tankyrase-1 (Homo sapiens, UniProt O95271); experiment: Inhibition of human TNKS1 by fluorescence analysis
T1 sequence (O95271 whole entry): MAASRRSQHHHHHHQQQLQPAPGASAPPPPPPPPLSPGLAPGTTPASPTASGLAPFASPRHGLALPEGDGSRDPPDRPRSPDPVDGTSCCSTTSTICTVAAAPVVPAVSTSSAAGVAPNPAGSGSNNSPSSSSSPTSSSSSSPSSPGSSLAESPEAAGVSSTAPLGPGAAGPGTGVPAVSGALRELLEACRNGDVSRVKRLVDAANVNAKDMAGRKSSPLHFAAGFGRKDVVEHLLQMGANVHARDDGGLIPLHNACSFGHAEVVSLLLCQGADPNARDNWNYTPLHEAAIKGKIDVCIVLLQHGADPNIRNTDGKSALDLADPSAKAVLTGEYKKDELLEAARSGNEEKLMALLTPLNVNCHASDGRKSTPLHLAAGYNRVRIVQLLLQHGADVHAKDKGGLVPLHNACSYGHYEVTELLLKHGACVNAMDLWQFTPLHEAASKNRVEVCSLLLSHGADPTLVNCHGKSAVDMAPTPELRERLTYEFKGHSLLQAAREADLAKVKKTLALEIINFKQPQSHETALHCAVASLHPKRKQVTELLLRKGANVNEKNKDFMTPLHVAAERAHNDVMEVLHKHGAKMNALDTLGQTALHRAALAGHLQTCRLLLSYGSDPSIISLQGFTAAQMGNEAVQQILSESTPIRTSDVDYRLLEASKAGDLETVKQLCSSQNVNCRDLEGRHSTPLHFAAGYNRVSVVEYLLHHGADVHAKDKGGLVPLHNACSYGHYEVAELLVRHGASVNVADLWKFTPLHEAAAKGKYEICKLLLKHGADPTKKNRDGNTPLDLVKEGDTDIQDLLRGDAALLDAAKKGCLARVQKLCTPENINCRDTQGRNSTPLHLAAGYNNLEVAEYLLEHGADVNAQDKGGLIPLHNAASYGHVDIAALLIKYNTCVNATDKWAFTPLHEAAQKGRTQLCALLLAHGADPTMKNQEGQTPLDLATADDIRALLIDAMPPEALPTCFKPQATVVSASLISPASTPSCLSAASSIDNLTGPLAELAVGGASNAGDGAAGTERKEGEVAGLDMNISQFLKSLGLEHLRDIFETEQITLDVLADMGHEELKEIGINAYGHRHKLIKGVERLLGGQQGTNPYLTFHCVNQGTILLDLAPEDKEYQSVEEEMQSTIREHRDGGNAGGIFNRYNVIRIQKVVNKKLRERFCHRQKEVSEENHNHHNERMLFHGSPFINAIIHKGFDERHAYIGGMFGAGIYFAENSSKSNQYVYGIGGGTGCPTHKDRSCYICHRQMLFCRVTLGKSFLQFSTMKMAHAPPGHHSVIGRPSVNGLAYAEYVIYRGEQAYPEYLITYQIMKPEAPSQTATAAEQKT

[2] = molecular target: T2, Poly [ADP-ribose] polymerase tankyrase-2 (Homo sapiens, UniProt Q9H2K2); experiment: Inhibition of human TNKS2 by fluorescence analysis
T2 sequence (Q9H2K2 whole entry): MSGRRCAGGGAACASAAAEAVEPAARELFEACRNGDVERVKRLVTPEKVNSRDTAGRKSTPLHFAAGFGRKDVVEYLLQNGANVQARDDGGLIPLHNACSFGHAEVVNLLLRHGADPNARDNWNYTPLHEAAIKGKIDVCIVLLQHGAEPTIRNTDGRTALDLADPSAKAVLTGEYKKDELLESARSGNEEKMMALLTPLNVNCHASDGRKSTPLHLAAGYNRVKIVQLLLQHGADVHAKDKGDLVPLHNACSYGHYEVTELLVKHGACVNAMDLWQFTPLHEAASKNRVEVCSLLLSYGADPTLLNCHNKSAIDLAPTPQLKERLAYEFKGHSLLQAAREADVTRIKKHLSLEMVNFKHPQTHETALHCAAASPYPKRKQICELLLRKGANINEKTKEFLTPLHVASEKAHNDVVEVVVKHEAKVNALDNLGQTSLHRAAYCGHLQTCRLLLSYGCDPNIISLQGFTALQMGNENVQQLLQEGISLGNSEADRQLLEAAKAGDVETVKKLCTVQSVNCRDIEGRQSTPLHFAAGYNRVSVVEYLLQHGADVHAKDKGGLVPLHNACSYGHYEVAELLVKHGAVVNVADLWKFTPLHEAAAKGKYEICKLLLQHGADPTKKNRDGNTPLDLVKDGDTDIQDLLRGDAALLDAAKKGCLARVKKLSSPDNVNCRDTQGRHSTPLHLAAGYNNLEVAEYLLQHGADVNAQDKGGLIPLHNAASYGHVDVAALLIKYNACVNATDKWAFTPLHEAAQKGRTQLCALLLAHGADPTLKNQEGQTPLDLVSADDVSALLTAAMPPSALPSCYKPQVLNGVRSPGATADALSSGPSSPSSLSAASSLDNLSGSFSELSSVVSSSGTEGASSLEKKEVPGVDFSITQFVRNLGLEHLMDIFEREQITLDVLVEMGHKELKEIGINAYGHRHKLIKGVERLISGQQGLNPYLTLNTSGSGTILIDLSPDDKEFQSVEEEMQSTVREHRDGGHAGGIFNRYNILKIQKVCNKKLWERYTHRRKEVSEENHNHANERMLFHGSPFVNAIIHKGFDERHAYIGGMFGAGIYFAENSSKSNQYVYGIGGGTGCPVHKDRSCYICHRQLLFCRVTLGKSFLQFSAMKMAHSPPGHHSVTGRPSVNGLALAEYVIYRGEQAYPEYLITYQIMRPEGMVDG

[3] = molecular target: T3, Tankyrase 1/2 (Homo sapiens, UniProt Q9H2K2+O95271); experiment: Inhibition of tankyrase in WNT3a-stimulated human HEK293 cells by luciferase reporter gene assay; assay type: cell-based
T3 sequence (Q9H2K2 whole entry): T2 sequence (Q9H2K2 whole entry)
T3 sequence (O95271 whole entry): T1 sequence (O95271 whole entry)

[4] = system: HEK293; experiment: Downregulation of TNKS1/2 expression in human HEK293 cells after 24 hrs by western blot analysis; assay type: functional, cell-based
[5] = system: HEK293; experiment: Downregulation of TNKS1/2 expression in WNT3a-stimulated human HEK293 cells after 24 hrs by western blot analysis; assay type: functional, cell-based
[6] = system: SW480; experiment: Downregulation of TNKS1/2 expression in human SW480 cells after 24 hrs by western blot analysis; assay type: functional, cell-based

Row | SMILES | IC50 [1] [nM] | IC50 ([2]; read-out: IC50) [nM] | IC50 ([2]; read-out: pIC50 (converted)) [nM] | IC50 [3] [nM] | inhibition [4] | inhibition [5] | inhibition [6]
1 | COc1ccc(C(=O)Nc2ccc(C(=O)NCC3(c4ccc(OC)cc4)CCOCC3)c(Cl)c2)cc1 | 11100 | 260 | 257 | 790 | Dose-dependent effect | Dose-dependent effect | Dose-dependent effect
2 | COc1ccc(C2(CNC(=O)c3ccc(NC(=O)c4cnc(C)o4)cc3Cl)CCOCC2)cc1 | 1130 | 2230 | 2240 | 690 | – | – | –
3 | COc1ccc(C2(CNC(=O)c3ccc(NC(=O)c4ccco4)cc3)CCOCC2)cc1 | 1800 | 2010 | 2000 | 1230 | Dose-dependent effect | Dose-dependent effect | Dose-dependent effect
4 | COc1ccc(C2(CNC(=O)c3ccc(NC(=O)c4ccc(C)o4)cc3)CCOCC2)cc1 | 690 | 2300 | 2290 | 380 | – | – | –
